Results taken from patent US4916122A, “3'-Azido-2',3'-dideoxyuridine anti-retroviral composition” (University of Georgia Research Foundation, Inc., priority 1987, dated 1990).
Several values for one entry are separate records, joined by “and”; a condition that tells them apart may be missing. Equal values may be shown once. Read-outs that look alike come from different tables or passages of the source.

What was measured:
[1] = system: liver enzymes SGPT and SGOT; assay type: in vivo, rhesus monkey; conditions: rhesus monkeys, FIG. 4
parainfluenza virus-3 = conditions: Colla et al.; cited from earlier work
[2] = Effect on weight of uninfected BALB/c mice (FIG. 3); assay type: in vivo, mouse; conditions: compared with each other and control
sarcoma 180 cells = conditions: in vitro; Lin et al.; cited from earlier work
uninfected cells = conditions: tested up to 200 μM
NIH Swiss mice = conditions: 67 days; for Hct / Hgb / MCH / MCHC / MCV / PLT / RBC / RDW / WBC: oral 0.5 mg/ml ad libitum
measles = conditions: Colla et al.; cited from earlier work
[3] = system: two particular enzymes isolated from L1210 cells; conditions: Lin et al.; cited from earlier work
HIV-1 and SIV = assay: Effect of delayed treatment on replication of HIV-1 and SIV in human PBM cells (FIG. 7); assay type: cell-based, HIV-1; SIV
Description: A comparison of the differences in median effective an tiviral concentrations between human, non-human primate, and murine retroviruses is shown in Table 5. […] A further comparison of the activity of several nucleoside analogues, including CS-87, against HIV-1 and SIV in human PBM cells is shown in FIG. 6. The effect of delayed treatment with AZT, CS-87 or CS-91 on the replication of HIV-1 and SIV in human PBM cells is shown in FIGS. 7a, b, and c.

Sindbis virus = conditions: Colla et al.; cited from earlier work

[N-]=[N+]=N[C@H]1C[C@H](n2ccc(=O)[nH]c2=O)O[C@@H]1CO [CS-87, 3'-azido-2',3'-dideoxyuridine]
toxicity by oral (po) vs intravenous administration [1]: less toxic than intravenous administration | activity against parainfluenza virus-3 (parainfluenza virus-3): inactive | effect on weight of uninfected BALB/c mice [2]: no significant difference | activity against sarcoma 180 cells (sarcoma 180 cells): inactive | toxicity to the uninfected cells (uninfected cells): not toxic | Hct (NIH Swiss mice; Mean of group): 42.4% | Hgb (NIH Swiss mice; Mean of group): 14.0 g/dL | MCH (NIH Swiss mice; Mean of group): 16.7 pg | MCHC (NIH Swiss mice; Mean of group): 33.1 g/dL | MCV (NIH Swiss mice; Mean of group): 50.4 fL | PLT (NIH Swiss mice; Mean of group): 1.3 × 10^6 | RBC (NIH Swiss mice; Mean of group): 8.4 × 10^6 | RDW (NIH Swiss mice; Mean of group): 26.0% | WBC (NIH Swiss mice; Mean of group): 8.0 × 10^3 | toxicity compared to AZT (RBC and MCV values) (NIH Swiss mice; NIH Swiss mice, oral 0.5 mg/ml): significantly less toxicity | Hct (NIH Swiss mice; individual mouse): 37.2% and 44.4% and 42.3% and 45.7% | Hgb (NIH Swiss mice; individual mouse): 12.9 g/dL and 14.1 g/dL and 14.2 g/dL and 14.8 g/dL | MCH (NIH Swiss mice; individual mouse): 16.9 pg and 16.4 pg and 16.6 pg and 16.8 pg | MCHC (NIH Swiss mice; individual mouse): 34.6 g/dL and 31.8 g/dL and 33.5 g/dL and 32.4 g/dL | MCV (NIH Swiss mice; individual mouse): 48.8 fL and 51.7 fL and 49.4 fL and 51.8 fL | PLT (NIH Swiss mice; individual mouse): 1.158 × 10^6 and 1.35 × 10^6 and 1.305 × 10^6 and 1.361 × 10^6 | RBC (NIH Swiss mice; individual mouse): 7.6 × 10^6 and 8.6 × 10^6 and 8.8 × 10^6 | RDW (NIH Swiss mice; individual mouse): 34.3% and 16.8% and 37.7% and 15.3% | WBC (NIH Swiss mice; individual mouse): 2.6 × 10^3 and 8.9 × 10^3 and 7.9 × 10^3 and 12.6 × 10^3 | activity against measles (measles): inactive | inhibitory activity towards two particular enzymes isolated from L1210 cells [3]: only marginal inhibitory activity | effect of delayed treatment on replication of HIV-1 and SIV (HIV-1 and SIV): time of administration is critical to the effectiveness of the treatment | activity against Sindbis virus (Sindbis virus): inactive
